Measured values as given in PMC10176470, “Engaging a Non-catalytic Cysteine Residue Drives Potent and Selective Inhibition of Caspase-6” (Journal of the American Chemical Society, 2023).

Biological target: proteins of HEK293T cells transiently overexpressing caspase-6 (Homo sapiens, UniProt P49591)
Format: cell-based
Conditions: exp_ref Probe; protein SARS (P49591); analysis C6

proteins of HEK293T cells transiently overexpressing caspase-6, sequence (P49591 whole entry, looked up): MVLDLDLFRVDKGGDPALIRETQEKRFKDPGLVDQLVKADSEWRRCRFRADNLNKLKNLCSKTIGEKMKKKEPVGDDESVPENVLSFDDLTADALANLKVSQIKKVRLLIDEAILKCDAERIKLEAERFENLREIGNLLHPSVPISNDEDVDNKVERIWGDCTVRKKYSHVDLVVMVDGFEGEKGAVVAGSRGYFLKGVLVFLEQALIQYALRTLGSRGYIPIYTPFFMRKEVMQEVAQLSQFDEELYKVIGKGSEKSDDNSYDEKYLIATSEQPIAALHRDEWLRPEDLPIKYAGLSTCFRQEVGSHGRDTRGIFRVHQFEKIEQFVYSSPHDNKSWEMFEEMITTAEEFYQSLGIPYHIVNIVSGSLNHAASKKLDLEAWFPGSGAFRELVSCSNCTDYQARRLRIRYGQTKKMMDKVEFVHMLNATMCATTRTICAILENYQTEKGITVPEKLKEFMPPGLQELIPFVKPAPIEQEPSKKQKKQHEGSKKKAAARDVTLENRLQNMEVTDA

**Q.** `C#CCOc1ccc([C@@H]2C[C@@H](C(=O)Nc3ccc(OC(F)(F)F)cc3)CN(S(=O)(=O)C=C)C2)cc1` (relative stereo) [13-t] was tested. Which enrich.exp.med did it give?
**A.** The enrich.exp.med was 0.8697.
